Each structure is given as a SMILES string.

The test system of this test is batrachotoxin (BTX) binding site of the sodium channel. Description: Affinity to the batrachotoxin (BTX) binding site of the sodium channel. Conditions: [3H]-batrachotoxinin A20 α-benzoate 10 nM; synaptosomes from rat cerebral cortex; test concentration not given. Set-up: species or system rat.

As for `CCCCN(C(=O)c1cccc(Cl)c1)c1nc2n(c1C(=O)NCCc1cc(OC)ccc1OC)CCCC2` [Example 2, 2-[butyl-(3-chloro-benzoyl)-amino]-5,6,7,8-tetrahydro-imidazo[1,2-a]pyridine-3-carboxylic acid [2-(2,5-dimethoxy-phenyl)-ethyl]-amide], the “BTX inhibition (rat) (% inhibition)” value is 59%.

With `CCc1ccccc1N1CCN(C(=O)c2c(N(C)C(=O)c3ccccc3)nc3n2CCCC3)CC1` [Example 3, N-{3-[4-(2-ethyl-phenyl)-piperazine-1-carbonyl]-5,6,7,8-tetrahydro-imidazo[1,2-a]pyridin-2-yl}-N-methyl-benzamide], the “BTX inhibition (rat) (% inhibition)” value came to 34%. Next, `CCCCN(C(=O)c1cccc(Cl)c1)c1nc2n(c1C(=O)NCCCn1ccnc1)CCCC2` [Example 9, 2-[butyl-(3-chloro-benzoyl)-amino]-5,6,7,8-tetrahydro-imidazo[1,2-a]pyridine-3-carboxylic acid (3-imidazol-1-yl-propyl)-amide]: 36%; `CN(C(=O)c1cccc(Cl)c1)c1nc2n(c1C(=O)N1CCN(c3cccc(C(F)(F)F)c3)CC1)CCCC2` [Example 14, 3-chloro-N-methyl-N-{3-[4-(3-trifluoromethyl-phenyl)-piperazine-1-carbonyl]-5,6,7,8-tetrahydro-imidazo[1,2-a]pyridin-2-yl}-benzamide]: 41%. Next, `CN(C(=O)c1cccc2ccccc12)c1nc2n(c1C(=O)NCc1cc(C(F)(F)F)cc(C(F)(F)F)c1)CCCC2` [Example 15, 2-[Methyl-(naphthalene-1-carbonyl)-amino]-5,6,7,8-tetrahydro-imidazo[1,2-a]pyridine-3-carboxylic acid 3,5-bis-trifluoromethyl-benzylamide]: 68%; `CCCCN(C(=O)c1ccc(F)c(F)c1)c1nc2n(c1C(=O)NC1CCC(C)CC1)CCCC2` (stereo not shown) [Example 16, 2-[butyl-(3,4-difluoro-benzoyl)-amino]-5,6,7,8-tetrahydro-imidazo[1,2-a]pyridine-3-carboxylic acid (4-methyl-cyclohexyl)-amide]: 47%.

With `CCCCN(C(=O)c1cccc(Cl)c1)c1nc2n(c1C(=O)N1CCN(CCCc3ccccc3)CC1)CCCC2` [Example 26, N-butyl-3-chloro-N-{3-[4-(3-phenyl-propyl)-piperazine-1-carbonyl]-5,6,7,8-tetrahydro-imidazo[1,2-a]pyridin-2-yl}-benzamide], the “BTX inhibition (rat) (% inhibition)” value is 93%.

As for `CC1C(NC(=O)c2c(N(C)C(=O)c3cccc(Cl)c3)nc3n2CCCC3)CC2CC1C2(C)C` (stereo not shown) [Example 27, 2-[(3-chloro-benzoyl)-methyl-amino]-5,6,7,8-tetrahydro-imidazo[1,2-a]pyridine-3-carboxylic acid (2,6,6-trimethyl-bicyclo[3.1.1]hept-3-yl)-amide], the “BTX inhibition (rat) (% inhibition)” value is listed as 35%. Under `CCCCN(C(=O)c1ccc(F)c(F)c1)c1nc2n(c1C(=O)NCCCc1ccccc1)CCCC2` [Example 28, 2-[butyl-(3,4-difluoro-benzoyl)-amino]-5,6,7,8-tetrahydro-imidazo[1,2-a]pyridine-3-carboxylic acid (3-phenyl-propyl)-amide] stands 42%; under `CN(C(=O)c1cccc2ccccc12)c1nc2n(c1C(=O)NC1CCN(Cc3ccc(C(F)(F)F)cc3)C1)CCCC2` (stereo not shown) [Example 30, 2-[methyl-(naphthalene-1-carbonyl)-amino]-5,6,7,8-tetrahydro-imidazo[1,2-a]pyridine-3-carboxylic acid [1-(4-trifluoromethyl-benzyl)-pyrrolidin-3-yl]-amide], 85%; under `CCc1ccc(NC(=O)c2c(N(C)C(=O)c3cccc(Cl)c3)nc3n2CCCC3)cc1` [Example 31, 2-[(3-chloro-benzoyl)-methyl-amino]-5,6,7,8-tetrahydro-imidazo[1,2-a]pyridine-3-carboxylic acid (4-ethyl-phenyl)-amide], 70%. Under `CN(C(=O)c1cccc2ccccc12)c1nc2n(c1C(=O)NCc1cccc(Cl)c1Cl)CCCC2` [Example 33, 2-[methyl-(naphthalene-1-carbonyl)-amino]-5,6,7,8-tetrahydro-imidazo[1,2-a]pyridine-3-carboxylic acid 2,3-dichlor-benzylamide] stands 49%; under `CCCCN(C(=O)c1ccc(F)c(F)c1)c1nc2n(c1C(=O)N(C)C1CCN(Cc3cc4ccccc4o3)C1)CCCC2` (stereo not shown) [Example 34, 2-[butyl-(3,4-difluoro-benzoyl)-amino]-5,6,7,8-tetrahydro-imidazo[1,2-a]pyridine-3-carboxylic acid (1-benzofuran-2-ylmethyl-pyrrolidin-3-yl)-methyl-amide], 83%.

In the case of `CCCCN(C(=O)c1cccc(Cl)c1)c1nc2n(c1C(=O)NC(C)c1cccc3ccccc13)CCCC2` (stereo not shown) [Example 39, 2-[butyl-(3-chloro-benzoyl)-amino]-5,6,7,8-tetrahydro-imidazo[1,2-a]pyridine-3-carboxylic acid (1-naphthalen-1-yl-ethyl)-amide], the “BTX inhibition (rat) (% inhibition)” value is recorded as 47%. As to `CCCCN(C(=O)c1cccc(Cl)c1)c1nc2n(c1C(=O)NCc1ccccc1OCC)CCCC2` [Example 43, 2-[butyl-(3-chloro-benzoyl)-amino]-5,6,7,8-tetrahydro-imidazo[1,2-a]pyridine-3-carboxylic acid 2-ethoxy-benzylamide], the “BTX inhibition (rat) (% inhibition)” value came to 40%. Next, `CN(C(=O)c1cccc(Cl)c1)c1nc2n(c1C(=O)N1CCN(Cc3ccc4c(c3)OCO4)CC1)CCCC2` [Example 45, N-[3-(4-benzo[1,3]dioxol-5-ylmethyl-piperazine-1-carbonyl)-5,6,7,8-tetrahydro-imidazo[1,2-a]pyridin-2-yl]-3-chloro-N-methyl-benzamide]: 41%; `CN(C(=O)c1cccc2ccccc12)c1nc2n(c1C(=O)NCC(c1ccccc1)c1ccccc1)CCCC2` [Example 46, 2-[methyl-(naphthalene-1-carbonyl)-amino]-5,6,7,8-tetrahydro-imidazo[1,2-a]pyridine-3-carboxylic acid (2,2-diphenyl-ethyl)-amide]: 67%. Under `CCCCN(C(=O)c1cccc(Cl)c1)c1nc2n(c1C(=O)NCc1ccc(F)cc1F)CCCC2` [Example 47, 2-[butyl-(3-chloro-benzoyl)-amino]-5,6,7,8-tetrahydro-imidazo[1,2-a]pyridine-3-carboxylic acid 2,4-difluoro-benzylamide] stands 44%. Under `CCCCN(C(=O)c1cccc(Cl)c1)c1nc2n(c1C(=O)N1CCN(c3ccccc3F)CC1)CCCC2` [Example 48, N-butyl-3-chloro-N-{3-[4-(2-fluoro-phenyl)-piperazine-1-carbonyl]-5,6,7,8-tetrahydro-imidazo[1,2-a]pyridin-2-yl}-benzamide] stands 89%. On to `Cc1ccc(CCNC(=O)c2c(N(C)C(=O)c3cccc4ccccc34)nc3n2CCCC3)cc1` [Example 49, 2-[methyl-(naphthalene-1-carbonyl)-amino]-5,6,7,8-tetrahydro-imidazo[1,2-a]pyridine-3-carboxylic acid (2-p-tolyl-ethyl)-amide], for which the “BTX inhibition (rat) (% inhibition)” value came out at 37%. `CCCCN(C(=O)c1cccc(Cl)c1)c1nc2n(c1C(=O)NCc1ccccc1C(F)(F)F)CCCC2` [Example 51, 2-[butyl-(3-chloro-benzoyl)-amino]-5,6,7,8-tetrahydro-imidazo[1,2-a]pyridine-3-carboxylic acid 2-trifluoromethyl-benzylamide]: the “BTX inhibition (rat) (% inhibition)” value is recorded as 35%.

With `CCCCN(C(=O)c1cccc(Cl)c1)c1nc2n(c1C(=O)NC1CCc3ccccc31)CCCC2` (stereo not shown) [Example 52, 2-[butyl-(3-chloro-benzoyl)-amino]-5,6,7,8-tetrahydro-imidazo[1,2-a]pyridine-3-carboxylic acid indan-1-ylamide], the “BTX inhibition (rat) (% inhibition)” value is recorded as 45%.

As for `CN(C(=O)c1cccc(Cl)c1)c1nc2n(c1C(=O)N1CCN(Cc3ccc4ccccc4n3)CC1)CCCC2` [Example 53, 3-chloro-N-methyl-N-[3-(4-quinolin-2-ylmethyl-piperazine-1-carbonyl)-5,6,7,8-tetrahydro-imidazo[1,2-a]pyridin-2-yl]-benzamide], the “BTX inhibition (rat) (% inhibition)” value was found to be 64%. Under `CCCCN(C(=O)c1ccc(F)c(F)c1)c1nc2n(c1C(=O)N1CCN(C(c3ccccc3)c3ccccc3)CC1)CCCC2` [Example 56, N-[3-(4-benzhydryl-piperazine-1-carbonyl)-5,6,7,8-tetrahydro-imidazo[1,2-a]pyridin-2-yl]-N-butyl-3,4-difluoro-benzamide] stands 65%; under `CC(C)CC(NC(=O)c1c(N(C)C(=O)c2cccc3ccccc23)nc2n1CCCC2)C(=O)OCc1ccccc1` (stereo not shown) [Example 57, 4-methyl-2-({2-[methyl-(naphthalene-1-carbonyl)-amino]-5,6,7,8-tetrahydro-imidazo[1,2-a]pyridine-3-carbonyl}-amino)-pentanoic acid benzyl ester], 31%. Next, `CCCCN(C(=O)c1cccc(Cl)c1)c1nc2n(c1C(=O)NCCN1CCCC1)CCCC2` [Example 58, 2-[butyl-(3-chloro-benzoyl)-amino]-5,6,7,8-tetrahydro-imidazo[1,2-a]pyridine-3-carboxylic acid (2-pyrrolidin-1-yl-ethyl)-amide]: 50%; `CN(C(=O)c1cccc(Cl)c1)c1nc2n(c1C(=O)NC1CCN(Cc3ccccc3OCc3ccccc3)C1)CCCC2` (stereo not shown) [Example 59, 2-[(3-chloro-benzoyl)-methyl-amino]-5,6,7,8-tetrahydro-imidazo[1,2-a]pyridine-3-carboxylic acid [1-(2-benzyloxy-benzyl)-pyrrolidin-3-yl]-amide]: 95%; `CN(C(=O)c1cccc(Cl)c1)c1nc2n(c1C(=O)N1CC=C(c3ccc(F)cc3)CC1)CCCC2` [Example 61, 3-chloro-N-{3-[4-(4-fluorophenyl)-3,6-dihydro-2H-pyridine-1-carbonyl]-5,6,7,8-tetrahydro-imidazo[1,2-a]pyridin-2-yl}-N-methyl-benzamide]: 38%.

The values are drawn from patent publication US7829568B2, “Substituted 5,6,7,8-tetrahydroimidazo[1,2-a]pyridin-2-ylamine compounds and their use for producing drugs” (Gruenenthal GmbH, priority 2005, dated 2010).
